Results as given in ChEMBL document CHEMBL1201862, “PubChem BioAssay data set” (2004).
Where a name gives a salt, the structure may show the parent alone. The source made the active and inactive calls.

Key:
[1] = fluconazole-exposed Candida albicans growth modulators – fluorescence, retest, confirmation (AID 2467); format: functional, cell-based
[2] = biological target: Heat shock protein HSP 90-alpha (Homo sapiens, UniProt P07900); format: functional, organism-based
[3] = NIH-3T3 fibroblast cytotoxicity, dose response, cytotoxicity control, cell-based, fluorescence, Alamar Blue, secondary assay (AID 2327); format: functional;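 note: NIH-3T3 mouse fibroblasts cultured with fluconazole at 8 µg/mL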
[4] = biological target: T1, Apoptotic protease-activating factor 1 (Homo sapiens, UniProt O14727); format: functional
T1 sequence (O14727 whole entry): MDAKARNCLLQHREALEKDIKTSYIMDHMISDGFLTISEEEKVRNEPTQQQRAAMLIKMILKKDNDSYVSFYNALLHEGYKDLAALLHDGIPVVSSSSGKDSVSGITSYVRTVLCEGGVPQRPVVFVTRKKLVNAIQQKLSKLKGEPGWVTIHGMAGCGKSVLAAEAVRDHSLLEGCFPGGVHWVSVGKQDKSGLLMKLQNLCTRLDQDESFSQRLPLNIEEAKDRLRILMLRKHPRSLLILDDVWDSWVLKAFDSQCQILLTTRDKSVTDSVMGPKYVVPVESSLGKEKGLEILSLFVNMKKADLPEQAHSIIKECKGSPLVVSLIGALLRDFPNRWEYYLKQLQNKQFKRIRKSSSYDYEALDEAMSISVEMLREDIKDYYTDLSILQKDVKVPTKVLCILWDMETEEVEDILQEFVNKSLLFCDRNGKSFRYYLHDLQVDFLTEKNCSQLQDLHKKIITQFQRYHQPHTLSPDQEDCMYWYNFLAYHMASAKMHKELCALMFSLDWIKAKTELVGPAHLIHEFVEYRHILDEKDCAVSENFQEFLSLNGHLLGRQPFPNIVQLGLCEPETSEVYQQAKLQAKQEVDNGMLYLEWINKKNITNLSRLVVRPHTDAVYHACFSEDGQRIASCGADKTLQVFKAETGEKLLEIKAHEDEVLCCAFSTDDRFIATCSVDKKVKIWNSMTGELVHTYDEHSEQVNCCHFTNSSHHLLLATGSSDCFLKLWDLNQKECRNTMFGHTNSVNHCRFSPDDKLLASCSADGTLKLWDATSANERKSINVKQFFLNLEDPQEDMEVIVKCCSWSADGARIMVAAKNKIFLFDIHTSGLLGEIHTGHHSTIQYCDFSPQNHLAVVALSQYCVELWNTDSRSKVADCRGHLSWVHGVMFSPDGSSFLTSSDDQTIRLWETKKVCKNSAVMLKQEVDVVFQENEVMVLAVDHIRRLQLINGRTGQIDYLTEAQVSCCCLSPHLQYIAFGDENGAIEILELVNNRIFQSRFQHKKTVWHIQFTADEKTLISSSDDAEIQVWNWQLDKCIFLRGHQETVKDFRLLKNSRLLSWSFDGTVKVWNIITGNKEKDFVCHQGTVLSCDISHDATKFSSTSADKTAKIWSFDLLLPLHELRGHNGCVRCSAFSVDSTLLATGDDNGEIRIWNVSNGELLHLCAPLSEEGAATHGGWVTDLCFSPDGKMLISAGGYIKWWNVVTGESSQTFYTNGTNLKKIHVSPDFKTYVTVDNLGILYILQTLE

[5] = biological target: T2, Microphthalmia-associated transcription factor (Homo sapiens, UniProt O75030); assay: reducers of TRPM1 reporter luminescence, concentration series – cell-based, SK-MEL-5, cherry-picked, set 3, MITF inhibitor project, dose response (AID 493073); format: functional;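 note: SK-MEL-5 melanoma cells with luciferase driven by the MITF target TRPM1 promoter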
T2 sequence (O75030 whole entry): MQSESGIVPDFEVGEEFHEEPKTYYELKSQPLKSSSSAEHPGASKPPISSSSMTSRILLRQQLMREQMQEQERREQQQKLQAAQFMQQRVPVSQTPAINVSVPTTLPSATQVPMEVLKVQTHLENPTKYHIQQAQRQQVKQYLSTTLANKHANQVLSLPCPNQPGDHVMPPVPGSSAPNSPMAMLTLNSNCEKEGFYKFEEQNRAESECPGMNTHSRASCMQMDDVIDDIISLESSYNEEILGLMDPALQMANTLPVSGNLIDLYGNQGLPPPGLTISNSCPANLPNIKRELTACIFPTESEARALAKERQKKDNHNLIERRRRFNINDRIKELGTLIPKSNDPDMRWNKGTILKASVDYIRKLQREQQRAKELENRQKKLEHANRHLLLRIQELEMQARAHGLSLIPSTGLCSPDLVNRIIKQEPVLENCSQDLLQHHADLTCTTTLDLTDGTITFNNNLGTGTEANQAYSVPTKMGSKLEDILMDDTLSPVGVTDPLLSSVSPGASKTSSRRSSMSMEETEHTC

[6] = reduction of Shn3 3'UTR-driven luciferase in osteoblasts – cell-based, Clone20 osteoblasts, firefly luciferase, cherry-picked, dose response (AID 624132); format: functional;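 note: firefly luciferase luminescence from reporter carrying the Shn3 3'UTR in osteoblasts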
[7] = non-specific 3'UTR reporter inhibition in Clone20-Shn3RL – cell-based, Renilla luciferase, cherry-picked, counter-screen for Shn3 inhibitor project, dose response (AID 624133); format: functional
[8] = loss of viability in HepG2 cells – cell-based, CellTiter-Glo, cherry-picked, cytotoxicity control for Shn3 inhibitor project, dose response (AID 624134); format: functional
[9] = biological target: Glucose-6-phosphate 1-dehydrogenase (Homo sapiens, UniProt P11413); assay: inhibition of Homo sapiens G6PD, dose series – biochemical, fluorescence, selectivity assay for P. falciparum G6PD inhibitor project, dose response (AID 504792); format: functional
Glucose-6-phosphate 1-dehydrogenase, sequence (P11413 whole entry): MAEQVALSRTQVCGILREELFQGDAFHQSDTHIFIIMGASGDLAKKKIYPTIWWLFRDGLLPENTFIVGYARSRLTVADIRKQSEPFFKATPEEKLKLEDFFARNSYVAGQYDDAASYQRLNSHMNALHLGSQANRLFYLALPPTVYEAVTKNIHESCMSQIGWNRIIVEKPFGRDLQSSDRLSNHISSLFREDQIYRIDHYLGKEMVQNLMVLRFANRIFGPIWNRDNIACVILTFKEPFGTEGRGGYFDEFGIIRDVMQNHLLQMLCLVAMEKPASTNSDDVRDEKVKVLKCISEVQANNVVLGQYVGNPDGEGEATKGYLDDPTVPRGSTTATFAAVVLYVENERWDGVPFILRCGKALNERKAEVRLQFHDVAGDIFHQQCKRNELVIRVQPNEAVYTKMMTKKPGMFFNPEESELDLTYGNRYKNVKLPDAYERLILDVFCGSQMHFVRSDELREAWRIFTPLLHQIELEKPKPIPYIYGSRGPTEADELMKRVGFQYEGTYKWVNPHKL

[10] = general cell-killing toxicity readout – plate reader, dry powder samples, cytotoxicity control for PAX8 inhibitor project, dose response (AID 743021); format: functional, cell-based
[11] = OVCAR-3 cell viability loss – plate reader, dry powder samples, PAX8 inhibitor project, dose response (AID 743044); format: functional, cell-based
Paired box protein Pax-8 = Paired box protein Pax-8 (Homo sapiens, UniProt Q06710); assay: PAX8 transcriptional activity inhibition in RMG-I – RMG-I cells, luciferase, cherry-pick, dose response (AID 687027); format: functional, cell-based;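 note: luciferase reporter driven by Pax8 target thyroperoxidase promoter measured by SteadyGlo luminescence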
Paired box protein Pax-8, sequence (Q06710 whole entry): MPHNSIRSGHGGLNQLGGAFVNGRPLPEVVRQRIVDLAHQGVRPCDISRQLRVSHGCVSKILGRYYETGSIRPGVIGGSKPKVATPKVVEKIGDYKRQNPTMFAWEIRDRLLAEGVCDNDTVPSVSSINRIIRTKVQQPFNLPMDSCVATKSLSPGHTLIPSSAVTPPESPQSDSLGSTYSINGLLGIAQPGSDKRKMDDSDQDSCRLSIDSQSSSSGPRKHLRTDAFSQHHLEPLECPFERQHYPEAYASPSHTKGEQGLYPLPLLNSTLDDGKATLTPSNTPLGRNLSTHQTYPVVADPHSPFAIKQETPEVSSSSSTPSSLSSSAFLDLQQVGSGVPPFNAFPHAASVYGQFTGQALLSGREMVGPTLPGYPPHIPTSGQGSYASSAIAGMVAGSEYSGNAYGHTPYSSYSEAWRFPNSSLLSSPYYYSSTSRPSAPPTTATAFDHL

[12] = RKO cell viability reduction, dose response, CellTiter-Glo luminescence (AID 1117322); format: functional
[13] = SNU-C1 cell viability reduction, dose response, CellTiter-Glo luminescence (AID 1117323); format: functional, cell-based
[14] = cytotoxicity toward HCT116 cells – cell-based, CellTiter-Glo luminescence, IC50, dose response (AID 1117332); format: functional; settings: HCT-116
[15] = CellTiter-Glo luminescence survival assay, SW480 colon tumor line, concentration-response curve, half-maximal inhibitory concentration (AID 1117338); format: functional
[16] = cytotoxicity toward Colo320 cells – cell-based, CellTiter-Glo luminescence, IC50, dose response (AID 1117334); format: functional; settings: COLO 320
[17] = HCT116 cell viability decrease, GSK3B pretreatment – CellTiter-Glo, IC50, dose response (AID 1117339); format: functional; settings: HCT-116
[18] = cytotoxicity toward HT-29 cells – cell-based, CellTiter-Glo luminescence, IC50, dose response (AID 1117330); format: functional
[19] = Reduced DLD-1 viability, concentration-response, CellTiter-Glo luminescence (AID 1117352); format: functional
[20] = alpha-synuclein stem-loop luciferase translation blockers – H4 neuroglioma cells, luminescence, confirmation (AID 1988); format: functional, cell-based
[21] = Luminescence Cell-Based Dose Response HTS to Identify Inhibitors of 5'UTR Stem-Loop Driven Prion Protein mRNA Translation in H4 Neuroglioblastoma Cells. [Related pubchem assays: 1827 (Project Summary), 1813 (Primary HTS)]; format: functional
HEK293 = assay: EBV LMP1 TES2 canonical NF-kB signalling blockers – cell-based, HEK293, luciferase, cherry-pick, dose response (AID 588343); format: functional; settings: Homo sapiens
Genome polyprotein = Genome polyprotein (dengue virus type 2, UniProt P29990); assay: flavivirus cap methylation enzyme inhibition – biochemical, confirmation dose response, primary screen (AID 588689); format: functional
Genome polyprotein, sequence (P29990 2492-3391 limits assumed): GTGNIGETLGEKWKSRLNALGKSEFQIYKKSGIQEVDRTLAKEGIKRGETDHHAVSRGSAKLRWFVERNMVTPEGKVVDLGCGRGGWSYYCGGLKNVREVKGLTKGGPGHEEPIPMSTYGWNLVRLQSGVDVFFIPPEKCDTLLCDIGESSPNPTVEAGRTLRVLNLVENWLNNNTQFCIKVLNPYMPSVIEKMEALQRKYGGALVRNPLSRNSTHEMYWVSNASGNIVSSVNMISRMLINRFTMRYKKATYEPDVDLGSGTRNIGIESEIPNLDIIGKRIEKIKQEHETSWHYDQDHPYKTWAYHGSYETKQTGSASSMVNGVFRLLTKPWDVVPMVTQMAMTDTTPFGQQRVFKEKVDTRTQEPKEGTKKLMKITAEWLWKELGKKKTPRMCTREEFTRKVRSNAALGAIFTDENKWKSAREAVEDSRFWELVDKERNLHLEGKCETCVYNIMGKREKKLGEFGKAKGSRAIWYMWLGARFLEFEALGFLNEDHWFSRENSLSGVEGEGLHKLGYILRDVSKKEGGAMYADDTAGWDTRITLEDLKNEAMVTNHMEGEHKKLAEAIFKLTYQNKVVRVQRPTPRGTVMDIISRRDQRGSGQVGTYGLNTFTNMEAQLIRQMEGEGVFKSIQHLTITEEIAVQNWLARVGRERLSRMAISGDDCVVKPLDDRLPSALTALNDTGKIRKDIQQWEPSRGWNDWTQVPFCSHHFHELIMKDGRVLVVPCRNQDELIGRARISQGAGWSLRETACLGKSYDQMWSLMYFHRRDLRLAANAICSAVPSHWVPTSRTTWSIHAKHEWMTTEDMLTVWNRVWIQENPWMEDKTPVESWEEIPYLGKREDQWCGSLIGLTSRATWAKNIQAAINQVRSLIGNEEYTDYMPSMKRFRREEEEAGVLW

With `CCc1ccc(OCC(=O)NNC(=S)NC(=O)C2CC2)c(Br)c1` the EC50 [1] was 1.61 µM (active), the AC50 [2] was 0.978 µM (active) and the EC50 [3] was > 150 µM (inactive).
For `Cc1ccc(S(=O)(=O)[N-]C2=C(n3cc[n+](CCC(C)C)c3)C(=O)c3ccccc3C2=O)cc1`, the IC50 [4] was 12.2 µM (active) and the AC50 [5] was 4.11 µM (active).
For `O=C(Nc1ccc(Br)cc1)c1ccc(F)c(S(=O)(=O)NCc2cccs2)c1`, the AC50 [6] was 3.05 µM (active), the AC50 [7] was 6.05 µM (active) and the AC50 [8] was 4.35 µM (active).
For `CCOC(=O)c1c(C)n(-c2ccc(C)cc2)c2c(C(C(C)=O)C(=O)O)c(Br)c(O)c(O)c12` (configuration not stated), the IC50 [4] was 12.3 µM (active) and the IC50 [9] was 26.5 µM (inactive).
For `O=C(Nc1ccccc1)N1CCCCN2[C@H](CO)[C@H](c3ccc(C#Cc4ccccc4)cc3)[C@H]2C1`, the AC50 [10] was 35.5 µM (active), the AC50 [11] was 20 µM (active) and the AC50 (Paired box protein Pax-8) was 16.8 µM (active).
For `CCC(C(=O)OCCOCCN(CC)CC)c1ccccc1` (configuration not stated) [BUTAMIRATE CITRATE], the IC50 [12] was > 20 µM (inactive), the IC50 [13] was > 20 µM (inactive) and the IC50 [14] was > 20 µM (inactive). For the same compound, the IC50 [15] was > 20 µM (inactive), the IC50 [16] was > 20 µM (inactive) and the IC50 [17] was > 20 µM (inactive). The IC50 [18] was > 20 µM (inactive) and the IC50 [19] was > 20 µM (inactive).
In the case of `O=C1NC(=O)/C(=C\c2ccc(OCc3cccc(C(=O)O)c3)c(Cl)c2)N1`, the EC50 [20] is reported as 9.49 µM (inconclusive), the EC50 [21] is reported as 10.6 µM (active) and the AC50 (HEK293) is reported as 6.47 µM (active).
For `Cc1ccc(S(=O)(=O)Oc2ccccc2C=C2C(=O)N(C)C(=O)N(C)C2=O)cc1`, the IC50 (Genome polyprotein) was 37.8 µM (active).
For `CC(=O)C1(C)CCC2C3C=C(C)C4=CC(=O)CCC4(C)C3CCC21C` (configuration not stated), the AC50 [6] was 9.83 µM (active), the AC50 [7] was 29.1 µM (active) and the AC50 [8] was 45.2 µM (active).
For `CC(C)Cn1cnc2c1c(=O)n(C)c(=O)n2C` [ISBUFYLLINE], the IC50 [12] was > 20 µM (inactive), the IC50 [13] was > 20 µM (inactive) and the IC50 [14] was > 20 µM (inactive). For the same compound, the IC50 [15] was > 20 µM (inactive), the IC50 [16] was > 20 µM (inactive) and the IC50 [17] was > 20 µM (inactive). For the same compound, the IC50 [18] was > 20 µM (inactive) and the IC50 [19] was > 20 µM (inactive).
With `COCC(=O)N1CCC(Oc2ccc(C(=O)N3C[C@H]4CC[C@H]3C4)cc2)CC1` the AC50 (HEK293) was > 350 µM (inactive).
